The source of these data is PubChem BioAssay AID1259407 (Chemical Carcinogenesis Research Information System (CCRIS), 2018).

This data set relates to CCRIS mutagenicity, Ames/micronucleus/aberration tests. Description: CCRIS mutagenicity studies.
[1] abbreviates: Test System: AMES SALMONELLA TYPHIMURIUM, Strain/Indicator: TA100, Metabolic Activation: NONE, Method: PREINCUBATION
The mark [2] stands for this setting: Test System: AMES SALMONELLA TYPHIMURIUM, Strain/Indicator: TA100, Metabolic Activation: NONE, Method: STANDARD PLATE.
Setting [3] is: Test System: AMES SALMONELLA TYPHIMURIUM, Strain/Indicator: TA1535, Metabolic Activation: NONE, Method: STANDARD PLATE.
Where [4] appears, read: Test System: AMES SALMONELLA TYPHIMURIUM, Strain/Indicator: TA98, Metabolic Activation: NONE, Method: STANDARD PLATE.
[5] abbreviates: Test System: AMES SALMONELLA TYPHIMURIUM, Strain/Indicator: TA98, Metabolic Activation: RAT, LIVER, S-9, AROCLOR 1254, Method: STANDARD PLATE.
The mark [6] stands for this setting: Test System: AMES SALMONELLA TYPHIMURIUM, Strain/Indicator: TA100, Metabolic Activation: RAT, LIVER, S-9, AROCLOR 1254, Method: STANDARD PLATE.
The mark [7] stands for this setting: Test System: AMES SALMONELLA TYPHIMURIUM, Strain/Indicator: TA1535, Metabolic Activation: RAT, LIVER, S-9, AROCLOR 1254, Method: STANDARD PLATE.
[8] abbreviates: Test System: AMES SALMONELLA TYPHIMURIUM, Strain/Indicator: TA1537, Metabolic Activation: NONE, Method: STANDARD PLATE.
The mark [9] stands for this setting: Test System: AMES SALMONELLA TYPHIMURIUM, Strain/Indicator: TA1537, Metabolic Activation: RAT, LIVER, S-9, AROCLOR 1254, Method: STANDARD PLATE.

Active and inactive are the calls of the source. The rule behind the calls is not given here.

Take `CC1(c2ccc(Oc3ccccc3)cc2)OC(=O)N(Nc2ccccc2)C1=O` (stereo unspecified): the mutagenic call runs as follows: (End Point: In vitro chromosomal aberrations, Test System: Human (male and female) lymphocytes, Metabolic Activation: None) “inactive; negative”; (End Point: In vitro chromosomal aberrations, Test System: Human (male and female) lymphocytes, Metabolic Activation: S-9) “inactive; negative”; (End Point: In vivo micronucleus, Test System: Bone marrow polychromatic erythrocytes, Species: Mouse, Strain/Sex: Crl:CD-1(ICR)BR/Male and female) “inactive; negative”; (End Point: UDS, Species: Rat, Strain/Sex: Sprague-Dawley Crl:CD BR/Male, Route: Oral) “inactive; negative”; (Test System: Ames Salmonella typhimurium, Strain/Indicator: TA97, Metabolic Activation: None, Method: Plate incorporation) “inactive; negative”; (Test System: Ames Salmonella typhimurium, Strain/Indicator: TA97, Metabolic Activation: Rat, Liver, S-9, Method: Plate incorporation) “inactive; negative”. Further, the mutagenic call by setting is: (Test System: Ames Salmonella typhimurium, Strain/Indicator: TA98, Metabolic Activation: None, Method: Plate incorporation) “inactive; negative”; (Test System: Ames Salmonella typhimurium, Strain/Indicator: TA98, Metabolic Activation: Rat, Liver, S-9, Method: Plate incorporation) “inactive; negative”; (Test System: Ames Salmonella typhimurium, Strain/Indicator: TA100, Metabolic Activation: None, Method: Plate incorporation) “inactive; negative”; (Test System: Ames Salmonella typhimurium, Strain/Indicator: TA100, Metabolic Activation: Rat, Liver, S-9, Method: Plate incorporation) “inactive; negative”; (Test System: Ames Salmonella typhimurium, Strain/Indicator: TA1535, Metabolic Activation: None, Method: Plate incorporation) “inactive; negative”; (Test System: Ames Salmonella typhimurium, Strain/Indicator: TA1535, Metabolic Activation: Rat, Liver, S-9, Method: Plate incorporation) “inactive; negative”. Besides, the mutagenic call is “inactive; negative” (Test System: Chinese hamster ovary cells, Strain/Indicator: CHO-K1-BH4 (HGPRT), Metabolic Activation: None, Method: Suspension/plate?); “inactive; negative” (Test System: Chinese hamster ovary cells, Strain/Indicator: CHO-K1-BH4 (HGPRT), Metabolic Activation: Rat, Liver, S-9, Method: Suspension/plate?); “inactive; negative” (Test System: E. coli, Strain/Indicator: WP2 uvrA (pKM101), Metabolic Activation: None, Method: Plate incorporation); “inactive; negative” (Test System: E. coli, Strain/Indicator: WP2 uvrA (pKM101), Metabolic Activation: Rat, Liver, S-9, Method: Plate incorporation).

`Cc1ccc(CC2CO2)cc1` (stereo unspecified): the mutagenic call runs as follows: under setting [1], “active; positive”; under setting [2], “active; positive”; (Test System: AMES SALMONELLA TYPHIMURIUM, Strain/Indicator: TA1535, Metabolic Activation: NONE, Method: PREINCUBATION) “active; positive”; under setting [3], “active; positive”.

Consider `CCCCC=O`, for which the mutagenic call reads like this: (Test System: AMES SALMONELLA TYPHIMURIUM, Strain/Indicator: TA98, Metabolic Activation: HAMSTER, LIVER, S-9, AROCLOR 1254, Method: STANDARD PLATE) “inactive; negative”; under setting [4], “inactive; negative”; under setting [5], “inactive; negative”; (Test System: AMES SALMONELLA TYPHIMURIUM, Strain/Indicator: TA100, Metabolic Activation: HAMSTER, LIVER, S-9, AROCLOR 1254, Method: STANDARD PLATE) “inactive; negative”; under setting [2], “inactive; negative”; under setting [6], “inactive; negative”. The mutagenic call is, setting by setting: (Test System: AMES SALMONELLA TYPHIMURIUM, Strain/Indicator: TA1535, Metabolic Activation: HAMSTER, LIVER, S-9, AROCLOR 1254, Method: STANDARD PLATE) “inactive; negative”; under setting [3], “inactive; negative”; under setting [7], “inactive; negative”; (Test System: AMES SALMONELLA TYPHIMURIUM, Strain/Indicator: TA1537, Metabolic Activation: HAMSTER, LIVER, S-9, AROCLOR 1254, Method: STANDARD PLATE) “inactive; negative”; under setting [8], “inactive; negative”; under setting [9], “inactive; negative”. Also, the mutagenic call was “inactive; negative” (Test System: AMES SALMONELLA TYPHIMURIUM, Strain/Indicator: TA1538, Metabolic Activation: HAMSTER, LIVER, S-9, AROCLOR 1254, Method: STANDARD PLATE); “inactive; negative” (Test System: AMES SALMONELLA TYPHIMURIUM, Strain/Indicator: TA1538, Metabolic Activation: NONE, Method: STANDARD PLATE); “inactive; negative” (Test System: AMES SALMONELLA TYPHIMURIUM, Strain/Indicator: TA1538, Metabolic Activation: RAT, LIVER, S-9, AROCLOR 1254, Method: STANDARD PLATE); “active; positive” (Test System: CHINESE HAMSTER V-79, Strain/Indicator: V-79/6-THIOGUANINE (HGPRT), Metabolic Activation: NONE, Method: REPLATING); “active; positive” (Test System: CHINESE HAMSTER V-79, Strain/Indicator: V-79/OUABAIN (NA/K), Metabolic Activation: NONE, Method: REPLATING); “active; positive. reevaluation of results: positive” (Test System: MOUSE LYMPHOMA, Strain/Indicator: L5178Y (TK+/TK-), Metabolic Activation: NONE, Method: SUSPENSION/PLATE). The mutagenic call is “inactive; negative. reevaluation of results: negative” (Test System: MOUSE LYMPHOMA, Strain/Indicator: L5178Y (TK+/TK-), Metabolic Activation: RAT, LIVER, S-9, AROCLOR 1254, Method: SUSPENSION/PLATE); “inactive; negative” (Test System: UDS HUMAN HEPATOCYTES, Strain/Indicator: THY INCORP, Metabolic Activation: NONE, Method: AUTORADIOGRAPHY); “active; positive” (Test System: UDS RAT HEPATOCYTES, Strain/Indicator: THY INCORP, Metabolic Activation: NONE, Method: AUTORADIOGRAPHY).

For the compound `O=C(OCc1ccc(Cl)cc1)c1cccc2cccnc12`, the mutagenic call under setting [4] was “inactive; negative”; the mutagenic call under setting [5] is “inactive; negative”; the mutagenic call under setting [2] is “inactive; negative”; the mutagenic call under setting [6] was “inactive; negative”; the mutagenic call under setting [3] was “inactive; negative”; the mutagenic call under setting [7] is “inactive; negative”. The mutagenic call is, setting by setting: under setting [8], “inactive; negative”; under setting [9], “inactive; negative”.

Consider `COc1ccc2nc(N)[nH]c2c1`, for which the mutagenic call was “inactive; negative” (Test System: AMES SALMONELLA TYPHIMURIUM, Strain/Indicator: TA98, Metabolic Activation: RAT, LIVER, S-9, AROCLOR 1254, Method: PREINCUBATION) and “inactive; negative” (Test System: AMES SALMONELLA TYPHIMURIUM, Strain/Indicator: TA100, Metabolic Activation: RAT, LIVER, S-9, AROCLOR 1254, Method: PREINCUBATION).

As for `Cc1cc(O)c2c(c1)C(=O)c1cc(O)c(O)c(O)c1C2=O`, the mutagenic call under setting [8] was “inactive; negative”.

Turning to `CC(=O)Oc1ccc2c(c1)OC1(C)OOC21C` (stereo unspecified), the mutagenic call under setting [1] is “active; positive”.

For the compound `c1cc2c3c(c1)ccc1cccc(c13)C1OC21` (stereo unspecified), the mutagenic call (Test System: CHINESE HAMSTER OVARY, Strain/Indicator: CHO (HGPRT)/6-THIOGUANINE, Metabolic Activation: NONE, Method: STANDARD PLATE) was “active; positive”; the mutagenic call (Test System: CHINESE HAMSTER OVARY, Strain/Indicator: CHO (HGPRT)/6-THIOGUANINE, Metabolic Activation: RAT, LIVER, S-9, AROCLOR 1254, Method: STANDARD PLATE) is “inactive; negative”; the mutagenic call (Test System: UDS RODENT HEPATOCYTES, Strain/Indicator: THY INCORP, Metabolic Activation: NONE, Method: AUTORADIOGRAPHY) is “active; positive”.
